Patent US7553864B2, “Compounds for the treatment of inflammatory disorders and microbial diseases” (Schering Corporation, priority 2005, dated 2009)

Biological target: T1, ADMP (ADAMTS-4-5) (Homo sapiens, UniProt O75173)
T1 construct: purchased Calbiochem PF113
T1 sequence (O75173 213-837): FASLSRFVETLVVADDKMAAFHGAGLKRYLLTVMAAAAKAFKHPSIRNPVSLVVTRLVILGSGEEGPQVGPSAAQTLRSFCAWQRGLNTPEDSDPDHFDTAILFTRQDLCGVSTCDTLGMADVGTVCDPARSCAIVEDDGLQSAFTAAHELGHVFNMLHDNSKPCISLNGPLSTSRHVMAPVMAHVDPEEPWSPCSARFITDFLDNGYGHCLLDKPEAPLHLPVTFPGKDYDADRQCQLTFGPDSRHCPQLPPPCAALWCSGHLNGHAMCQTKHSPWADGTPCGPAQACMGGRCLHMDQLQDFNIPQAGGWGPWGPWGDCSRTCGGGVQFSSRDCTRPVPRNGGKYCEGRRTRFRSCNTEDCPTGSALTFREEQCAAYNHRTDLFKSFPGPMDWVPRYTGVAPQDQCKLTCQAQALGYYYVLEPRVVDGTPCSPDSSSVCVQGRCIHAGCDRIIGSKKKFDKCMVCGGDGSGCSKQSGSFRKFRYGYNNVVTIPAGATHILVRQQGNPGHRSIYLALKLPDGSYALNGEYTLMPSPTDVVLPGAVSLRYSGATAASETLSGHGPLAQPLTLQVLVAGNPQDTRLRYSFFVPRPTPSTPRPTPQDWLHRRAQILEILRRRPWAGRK
Test: ADMP activity assay (procedures of WO00/05256)
Type: biochemical
Details: read-out: IC50 (ADMP inhibition)
Description: The procedures of International Patent Publication WO00/05256 (published Feb. 3, 2000) were followed for detection of ADMP Activity and for measuring the IC50 of the compounds of the present invention. This was indicative of activity against a desintgrin and metallopropeinase thrombo spondin 4 and 5 (ADAMTS-4-5).
The enzyme was purchased commercially from Calbiochem (Cat# PF113) and the peptide substrate described in the patent was custom-ordered from AnaSpec.

SMILES	IC50
O=C(NCc1ccc(I)cc1)[C@H](O)[C@@H](O)C(=O)N1CCc2ccccc2C1 [Compound 204]	90 nM
COc1cc2c(cc1OC)CN(C(=O)[C@H](O)[C@@H](O)C(=O)N[C@@H](C)c1ccc(Br)cc1)CC2 [Compound 207]	96 nM

Same assay, conditions: read-out: IC50 rating (ADMP inhibitory activity)

SMILES	IC50
C[C@H](NC(=O)[C@H](O)[C@@H](O)C(=O)N1Cc2ccccc2C1)c1ccc(Br)cc1 [Compound 175]	250 to 1000 nM
C[C@H](NC(=O)[C@H](O)[C@@H](O)C(=O)N(C)CCc1ccccc1)c1ccc(Br)cc1 [Compound 176]	250 to 1000 nM
O=C(NCc1ccc(C(F)(F)F)cc1)[C@H](O)[C@@H](O)C(=O)N1CCc2ccccc2C1 [Compound 180]	250 to 1000 nM
O=C(NCc1cccc(I)c1)[C@H](O)[C@@H](O)C(=O)N1CCc2ccccc2C1 [Compound 181]	> 5000 nM
O=C(NCc1ccc(Br)cc1)[C@H](O)[C@@H](O)C(=O)N1CCc2ccccc2C1 [Compound 184]	250 to 1000 nM
O=C(NCc1cccc(Br)c1)[C@@H](O)[C@H](O)C(=O)N1CCc2ccccc2C1 [Compound 185]	> 5000 nM
CC(NC(=O)[C@H](O)[C@@H](O)C(=O)N1CCc2ccccc2C1)c1ccc(S(C)(=O)=O)cc1 (stereo partly drawn) [Compound 186]	> 5000 nM
C[C@@H](c1ccc(Br)cc1)N(C)C(=O)[C@@H](O)[C@H](O)C(=O)N1CCc2ccccc2C1 [Compound 187]	> 5000 nM
CN1CCC(N(C)C(=O)[C@@H](O)[C@H](O)C(=O)NCc2ccc(I)cc2)CC1 [Compound 189]	> 5000 nM
C[C@H](NC(=O)[C@H](O)[C@@H](O)C(=O)N1CCc2ccccc2C1)c1ccc(-c2cccc(N3CCCC3)c2)cc1 [Compound 196]	< 250 nM
C[C@H](NC(=O)[C@H](O)[C@@H](O)C(=O)N1CCc2ccccc2C1)c1ccc(-c2ccc(O)cc2)cc1 [Compound 200]	< 250 nM
CC(NC(=O)[C@H](O)[C@@H](O)C(=O)N1CCc2ccccc2C1)c1ccc(C(F)(F)F)cc1 (stereo partly drawn) [Compound 201]	250 to 1000 nM
O=C(NCc1ccc(I)cc1)[C@H](O)[C@@H](O)C(=O)N1CCc2ccccc2C1 [Compound 204]	< 250 nM
C[C@H](NC(=O)[C@H](O)[C@@H](O)C(=O)N(C)C1Cc2ccccc2C1)c1ccc(Br)cc1 [Compound 206]	250 to 1000 nM
COc1cc2c(cc1OC)CN(C(=O)[C@H](O)[C@@H](O)C(=O)N[C@@H](C)c1ccc(Br)cc1)CC2 [Compound 207]	< 250 nM
C[C@H](NC(=O)[C@H](O)[C@@H](O)C(=O)N1CCCC1c1cccc(Cl)c1)c1ccc(Br)cc1 (stereo partly drawn) [Compound 209]	< 250 nM
O=C(NCc1cccc(Br)c1)C(O)C(O)C(=O)N1CCc2ccccc2C1 (stereo not drawn) [Compound 211]	> 5000 nM
O=C(NCc1cccc(I)c1)C(O)C(O)C(=O)N1CCc2ccccc2C1 (stereo not drawn) [Compound 212]	> 5000 nM
C[C@H](NC(=O)C(O)C(O)C(=O)N1CCN(c2ccc(O)cc2)CC1)c1ccc(Br)cc1 (stereo partly drawn) [Compound 215]	1000 to 5000 nM
C[C@H](NC(=O)C(O)C(O)C(=O)N1Cc2ccccc2C1)c1ccc(O)cc1 (stereo partly drawn) [Compound 216]	< 250 nM
C[C@H](NC(=O)C(O)C(O)C(=O)N1Cc2ccccc2C1)c1cccc(O)c1 (stereo partly drawn) [Compound 217]	1000 to 5000 nM
C[C@H](NC(=O)C(O)C(O)C(=O)N1CCc2ccccc2C1)c1cccc(Br)c1 (stereo partly drawn) [Compound 218]	> 5000 nM
C[C@H](NC(=O)C(O)C(O)C(=O)N1CCc2ccccc2C1)c1cccc(I)c1 (stereo partly drawn) [Compound 219]	1000 to 5000 nM
C[C@H](NC(=O)C(O)C(O)C(=O)N1CCc2ccccc2C1)c1ccc(C(F)(F)F)cc1F (stereo partly drawn) [Compound 220]	> 5000 nM
O=C(NCCCCCn1c(C(F)(F)F)nc2ccccc21)C(O)C(O)C(=O)N1CCc2ccccc2C1 (stereo not drawn) [Compound 221]	> 5000 nM
